From patent publication US10238670B2, “9-aminomethyl minocycline compounds and methods of use thereof in urinary tract infection (UTI) treatment” (Paratek Pharmaceuticals, Inc., priority 2016, dated 2019)
Converted amounts (≈) assume the structure as drawn.

Columns and labels:
Assay in all cases: In vitro MIC, 2010 surveillance isolates
MS CoNS = assay type: cell-based, Coagulase-Negative Staphylococcus
E. faecalis VNS = assay type: cell-based
MRSA = assay type: cell-based
E. faecium VNS = assay type: cell-based
MSSA = assay type: cell-based
MR CoNS = assay type: cell-based, Coagulase-Negative Staphylococcus
E. faecium VS = assay type: cell-based
E. faecalis VS = assay type: cell-based

For CN[C@H](CC(C)C)C(=O)N[C@H]1C(=O)N[C@@H](CC(N)=O)C(=O)N[C@H]2C(=O)N[C@H]3C(=O)N[C@H](C(=O)N[C@H](C(=O)O)c4cc(O)cc(O)c4-c4cc3ccc4O)[C@H](O)c3ccc(c(Cl)c3)Oc3cc2cc(c3O[C@@H]2O[C@H](CO)[C@@H](O)[C@H](O)[C@H]2O[C@H]2C[C@](C)(N)[C@H](O)[C@H](C)O2)Oc2ccc(cc2Cl)[C@H]1O [Vancomycin], the “% R (resistance)” value (MS CoNS; Asia/Pac, Eucast breakpoints) was 0%, the MIC90 (MS CoNS; Asia/Pac, N=18) was 2 µg/mL (≈ 1.38 µM) and the “% R (resistance)” value (MS CoNS; Europe, Eucast breakpoints) was 1.1%. For the same compound, the MIC90 (MS CoNS; Europe, N=185) was 2 µg/mL (≈ 1.38 µM), the “% R (resistance)” value (MS CoNS; L. Amer, CLSI breakpoints) was 0% and the MIC90 (MS CoNS; L. Amer, N=67) was 2 µg/mL (≈ 1.38 µM). The “% R (resistance)” value (MS CoNS; N America, CLSI breakpoints) was 0%, the MIC90 (MS CoNS; N America, N=191) was 2 µg/mL (≈ 1.38 µM) and the “range of MICs (N <10, shown instead of MIC90)” value (“range of MICs” below) (E. faecalis VNS; Asia/Pac, N=1) was over 16. The “% R (resistance)” value (E. faecalis VNS; Europe, Eucast breakpoints) was 100%, the “range of MICs” value (E. faecalis VNS; Europe, N=8) was over 16 and the “% R (resistance)” value (E. faecalis VNS; L. Amer, CLSI breakpoints) was 100%. The “range of MICs” value (E. faecalis VNS; L. Amer, N=7) was over 16, the “% R (resistance)” value (E. faecalis VNS; N America, CLSI breakpoints) was 92.1% and the MIC90 (E. faecalis VNS; N America, N=38) was over 16 µg/mL. The “% R (resistance)” value (MRSA; Asia/Pac, Eucast breakpoints) was 0%, the MIC90 (MRSA; Asia/Pac, N=428) was 1 µg/mL (≈ 0.69 µM) and the “% R (resistance)” value (MRSA; Europe, Eucast breakpoints) was 0%. The MIC90 (MRSA; Europe, N=750) was 1 µg/mL (≈ 0.69 µM), the “% R (resistance)” value (MRSA; L. Amer, CLSI breakpoints) was 0% and the MIC90 (MRSA; L. Amer, N=506) was 1 µg/mL (≈ 0.69 µM). For the same compound, the “% R (resistance)” value (MRSA; N America, CLSI breakpoints) was 0%, the MIC90 (MRSA; N America, N=2508) was 1 µg/mL (≈ 0.69 µM) and the “% R (resistance)” value (E. faecium VNS; Asia/Pac, Eucast breakpoints) was 100%. The MIC90 (E. faecium VNS; Asia/Pac, N=24) was over 16 µg/mL, the “% R (resistance)” value (E. faecium VNS; Europe, Eucast breakpoints) was 100% and the MIC90 (E. faecium VNS; Europe, N=71) was over 16 µg/mL. The “% R (resistance)” value (E. faecium VNS; L. Amer, CLSI breakpoints) was 100%, the MIC90 (E. faecium VNS; L. Amer, N=41) was over 16 µg/mL and the “% R (resistance)” value (E. faecium VNS; N America, CLSI breakpoints) was 99.4%. For the same compound, the MIC90 (E. faecium VNS; N America, N=478) was over 16 µg/mL, the “% R (resistance)” value (MSSA; Asia/Pac, Eucast breakpoints) was 0% and the MIC90 (MSSA; Asia/Pac, N=641) was 1 µg/mL (≈ 0.69 µM). The “% R (resistance)” value (MSSA; Europe, Eucast breakpoints) was 0%, the MIC90 (MSSA; Europe, N=2109) was 1 µg/mL (≈ 0.69 µM) and the “% R (resistance)” value (MSSA; L. Amer, CLSI breakpoints) was 0%. The MIC90 (MSSA; L. Amer, N=590) was 1 µg/mL (≈ 0.69 µM), the “% R (resistance)” value (MSSA; N America, CLSI breakpoints) was 0% and the MIC90 (MSSA; N America, N=2373) was 1 µg/mL (≈ 0.69 µM). For the same compound, the “% R (resistance)” value (MR CoNS; Asia/Pac, Eucast breakpoints) was 1.3%, the MIC90 (MR CoNS; Asia/Pac, N=77) was 2 µg/mL (≈ 1.38 µM) and the “% R (resistance)” value (MR CoNS; Europe, Eucast breakpoints) was 0.4%. The MIC90 (MR CoNS; Europe, N=510) was 2 µg/mL (≈ 1.38 µM), the “% R (resistance)” value (MR CoNS; L. Amer, CLSI breakpoints) was 0% and the MIC90 (MR CoNS; L. Amer, N=301) was 2 µg/mL (≈ 1.38 µM). For the same compound, the “% R (resistance)” value (MR CoNS; N America, CLSI breakpoints) was 0%, the MIC90 (MR CoNS; N America, N=461) was 2 µg/mL (≈ 1.38 µM) and the “% R (resistance)” value (E. faecium VS; Asia/Pac, Eucast breakpoints) was 0%. For the same compound, the MIC90 (E. faecium VS; Asia/Pac, N=106) was 1 µg/mL (≈ 0.69 µM), the “% R (resistance)” value (E. faecium VS; Europe, Eucast breakpoints) was 0% and the MIC90 (E. faecium VS; Europe, N=303) was 1 µg/mL (≈ 0.69 µM). The “% R (resistance)” value (E. faecium VS; L. Amer, CLSI breakpoints) was 0%, the MIC90 (E. faecium VS; L. Amer, N=51) was 1 µg/mL (≈ 0.69 µM) and the “% R (resistance)” value (E. faecium VS; N America, CLSI breakpoints) was 0%. The MIC90 (E. faecium VS; N America, N=115) was 1 µg/mL (≈ 0.69 µM), the “% R (resistance)” value (E. faecalis VS; Asia/Pac, Eucast breakpoints) was 0% and the MIC90 (E. faecalis VS; Asia/Pac, N=214) was 2 µg/mL (≈ 1.38 µM). For the same compound, the “% R (resistance)” value (E. faecalis VS; Europe, Eucast breakpoints) was 0%, the MIC90 (E. faecalis VS; Europe, N=669) was 2 µg/mL (≈ 1.38 µM) and the “% R (resistance)” value (E. faecalis VS; L. Amer, CLSI breakpoints) was 0%. For the same compound, the MIC90 (E. faecalis VS; L. Amer, N=290) was 2 µg/mL (≈ 1.38 µM), the “% R (resistance)” value (E. faecalis VS; N America, CLSI breakpoints) was 0% and the MIC90 (E. faecalis VS; N America, N=863) was 2 µg/mL (≈ 1.38 µM).
